Columns and labels:
HepG2 cells [1] = experiment: Variation in NADH levels (total NADH/NAD ratio), spectrophotometric kit; assay type: cell-based, human; conditions: 72 hours
From the text: (§1) Although it is known that under hyperglycemic conditions α-LA induces AMPK activation in hepatic cells, the molecular mechanisms responsible for this biochemical process are not yet known. As envisaged in the description, the inventors of the present invention have advanced the hypothesis that AMPK activation by α-LA is the result of changes in the amount of NADH and NADHP present in cells, due to the interference of α-LA and/or its analogous derivatives in the oxidation-reduction processes. To verify this hypothesis, use was made of commercial kits (by Valter Occhiena) able to analyze the variations in the cellular amounts of NAD(P)H relative to total NAD(P), in the presence of increasing concentrations of the compounds under analysis (total NAD=NADH+NAD^+; total NADP=NADPH+NADP^+).

[2] = Pharmacokinetic study in rats after oral administration of a single dose, HPLC-MS of plasma; assay type: in vivo; conditions: rat, single dose 48.5 μmol/kg
Description: The bioavailability of some compounds synthesized (Examples 1a, 2, 2a, 3, 3a, 10, 15a, 16a and 24) was studied in rats after oral administration of a single dose (48.5 μmol/kg) and compared with the reference (R)- or (RS)-α-LA.
Each treatment was carried out on groups of 6 male rats (Sprague-Dawley SD rat) per compound. At regular times, blood withdrawals were carried out for the measurement by HPLC-MS of the concentration of plasmatic α-LA (FIGS. 5, 7, 9) and of the residual compound administered (FIGS. 6, 8).

HepG2 cells [3] = experiment: Variation in NADPH levels (total NADPH/NADP ratio), spectrophotometric kit; assay type: cell-based, human; conditions: HepG2 cells, 5, 10, 100 and 500 μM, 72 hours
From the text: as §1

[4] = system: human hepatocarcinoma cells (HepG2 cells); experiment: Evaluation of cell viability (ATPlite luminometric assay) and cell proliferation; assay type: cell-based; conditions: 1 mM
Description: Dose-dependent concentration studies of the synthesized compounds were carried out and compared with the effects of alpha-lipoic acid, defined as reference standard, on human hepatocarcinoma cells (HepG2 cells) with the aim of evaluating their effects on cell viability.
Analysis by optical microscope enabled any morphological changes and accumulation of lipid vesicles to be determined as well as to evaluate cell proliferation or arrest.
A luminometric assay (ATPlite, Perkin Elmer), based on the production of light caused by a reaction with the intracellular ATP of viable cells, enabled the compounds to be classified on the basis of their viability index. In this respect, the signal detected by the luminometer is proportional to the number of viable cells. […]

diabetic rats = conditions: diabetes type II models, high doses of α-LA (30 mg/kg in rats); cited from earlier work
[5] = in man, cited from earlier work

| Structure (SMILES) | NADH levels relative to control at 5 μM (FIG. 10) (HepG2 cells [1]; 5 μM) | released alpha-lipoic acid and compound itself in plasma, any withdrawal time [2] | effect on NADPH levels (FIG. 11) (HepG2 cells [3]) | amount of NADH at high concentrations (FIG. 10) (HepG2 cells [1]; 100 and 500 μm) | confluence reached by HepG2 cells (arrest of cell proliferation) [4] | glycemia in diabetic rats (diabetic rats) | bioavailability after oral administration ([5]; oral) | plasma half life (t1/2) [5] |
| --- | --- | --- | --- | --- | --- | --- | --- | --- |
| O=C(CCCCC1CCSS1)NCCCN1CCOCC1 (racemic) [Example 3a, 5-[1,2]dithiolan-3-yl-pentanoic acid(3-morpholin-4-yl-propyl)-amide] | lower NADH levels than the control | neither released alpha-lipoic acid nor the compound itself was detected | influenced NADPH levels, in a dose dependent manner | – | – | – | – | – |
| O=C(O)CCCC[C@@H]1CCSS1 [(R)-α-LA, (R)-alpha-lipoic acid, reference compound] | – | – | influenced NADPH levels, in a dose dependent manner | decrease in NADH levels | 60-70% | – | – | – |
| O=C(O)CCCC[C@@H]1CCSS1 (racemic) [α-LA, 1,2-dithiolane-3-pentanoic acid] | – | – | – | – | – | reduces glycemia | less than 30% | 28 min |
